Data reported in ChEMBL document CHEMBL6092166, “Design, synthesis and enzymatic inhibition evaluation of novel 4-hydroxy Pd-C-Ⅲ derivatives as α-glucosidase and PTP1B dual-target inhibitors” (Eur J Med Chem, 2024).
Active and inactive are the calls of the source. The calls are words filed in the database; no cut-off is given here.

Legend:
[1] = molecular target: T1, Alpha glucosidase (Homo sapiens, UniProt O43451+P10253+P14410+Q2M2H8); experiment: Inhibition of alpha-glucosidase (unknown origin) using p-NPG as substrate preincubated for 15 mins followed by substrate addition for 30 mins by absorbance based analysis; format: protein assay
[2] = molecular target: T2, Tyrosine-protein phosphatase non-receptor type 1 (Homo sapiens, UniProt P18031); experiment: Inhibition of PTP1B (unknown origin) using pNPP as substrate preincubated for 10 mins followed by substrate addition for 20 mins by absorbance based analysis
T2 sequence (P18031 whole entry): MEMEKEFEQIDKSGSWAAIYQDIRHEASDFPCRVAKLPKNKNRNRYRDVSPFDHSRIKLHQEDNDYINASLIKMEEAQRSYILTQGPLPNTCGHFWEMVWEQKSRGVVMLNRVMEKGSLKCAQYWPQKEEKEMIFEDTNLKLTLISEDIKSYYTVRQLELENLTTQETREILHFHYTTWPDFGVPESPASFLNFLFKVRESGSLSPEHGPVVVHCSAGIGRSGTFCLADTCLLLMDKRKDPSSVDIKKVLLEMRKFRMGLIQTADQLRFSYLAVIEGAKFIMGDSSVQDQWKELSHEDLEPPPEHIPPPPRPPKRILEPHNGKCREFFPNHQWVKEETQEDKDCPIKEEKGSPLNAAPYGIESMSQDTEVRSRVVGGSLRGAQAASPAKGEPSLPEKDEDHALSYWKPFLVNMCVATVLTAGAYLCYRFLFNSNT

[3] = molecular target: T1, Alpha glucosidase; experiment: Inhibition of alpha-glucosidase (unknown origin) using p-NPG as substrate incubated for 15 mins by spectrophotometric analysis; format: protein assay
[4] = molecular target: T1, Alpha glucosidase; experiment: Inhibition of alpha-glucosidase (unknown origin) activity assessed as disruption of secondary structure by measuring alpha-helix content at 40 uM by Circular dichroism spectra analysis (reference value: 40.0%); format: protein assay; parameters: scale not given: the % may be the effect or the level left
[5] = molecular target: T1, Alpha glucosidase; experiment: Inhibition of alpha-glucosidase (unknown origin) activity assessed as disruption of secondary structure by measuring alpha-helix content at 30 uM by Circular dichroism spectra analysis (reference value: 40.0%); format: protein assay; parameters: scale not given: the % may be the effect or the level left
[6] = molecular target: T1, Alpha glucosidase; experiment: Inhibition of alpha-glucosidase (unknown origin) activity assessed as disruption of secondary structure by measuring beta-sheet content at 10 uM by Circular dichroism spectra analysis (reference value: 13.9%); format: protein assay; parameters: scale not given: the % may be the effect or the level left
[7] = system: Mus musculus; experiment: Reduction in blood glucose concentration in male Kunming mouse assessed as decrease in glucose AUC at 20 mg/kg preadministered for 40 mins and measured after 120 mins by sucrose loading test relative to control; format: functional, organism-based
[8] = molecular target: T1, Alpha glucosidase; experiment: Binding affinity to alpha-glucosidase (unknown origin) using p-NPG as substrate assessed as free inhibition constant at 0 to 20 uM incubated for 15 mins by Lineweaver-Burk double reciprocal plot analysis; format: protein assay
[9] = molecular target: T1, Alpha glucosidase; experiment: Inhibition of alpha-glucosidase (unknown origin) activity assessed as disruption of secondary structure by measuring alpha-helix content at 50 uM by Circular dichroism spectra analysis (reference value: 40.0%); format: protein assay; parameters: scale not given: the % may be the effect or the level left
[10] = molecular target: T1, Alpha glucosidase; experiment: Inhibition of alpha-glucosidase (unknown origin) activity assessed as disruption of secondary structure by measuring random coil content at 40 uM by Circular dichroism spectra analysis (reference value: 27.1%); format: protein assay; parameters: scale not given: the % may be the effect or the level left
[11] = molecular target: T1, Alpha glucosidase; experiment: Inhibition of alpha-glucosidase (unknown origin) activity assessed as disruption of secondary structure by measuring random coil content at 10 uM by Circular dichroism spectra analysis (reference value: 27.1%); format: protein assay; parameters: scale not given: the % may be the effect or the level left
[12] = molecular target: T1, Alpha glucosidase; experiment: Inhibition of alpha-glucosidase (unknown origin) activity assessed as disruption of secondary structure by measuring beta-turn content at 10 uM by Circular dichroism spectra analysis (reference value: 15.8%); format: protein assay; parameters: scale not given: the % may be the effect or the level left
[13] = molecular target: T1, Alpha glucosidase; experiment: Inhibition of alpha-glucosidase (unknown origin) activity assessed as disruption of secondary structure by measuring random coil content at 50 uM by Circular dichroism spectra analysis (reference value: 27.1%); format: protein assay; parameters: scale not given: the % may be the effect or the level left
[14] = molecular target: T1, Alpha glucosidase; experiment: Mixed inhibition of alpha-glucosidase (unknown origin) using p-NPG as substrate assessed as increased in Km and decreased in Vmax at 0 to 20 uM incubated for 15 mins by Lineweaver-Burk double reciprocal plot analysis; format: protein assay; settings: dose 0-20 µM
[15] = molecular target: T1, Alpha glucosidase; experiment: Inhibition of alpha-glucosidase (unknown origin) activity assessed as disruption of secondary structure by measuring beta-turn content at 30 uM by Circular dichroism spectra analysis (reference value: 15.8%); format: protein assay; parameters: scale not given: the % may be the effect or the level left
[16] = molecular target: T2, Tyrosine-protein phosphatase non-receptor type 1; experiment: Inhibition of PTP1B (unknown origin)
[17] = molecular target: T1, Alpha glucosidase; experiment: Inhibition of alpha-glucosidase (unknown origin) activity assessed as disruption of secondary structure by measuring beta-sheet content at 30 uM by Circular dichroism spectra analysis (reference value: 13.9%); format: protein assay; parameters: scale not given: the % may be the effect or the level left
[18] = molecular target: T1, Alpha glucosidase; experiment: Inhibition of alpha-glucosidase (unknown origin) activity assessed as disruption of secondary structure by measuring beta-sheet content at 50 uM by Circular dichroism spectra analysis (reference value: 13.9%); format: protein assay; parameters: scale not given: the % may be the effect or the level left
[19] = molecular target: T1, Alpha glucosidase; experiment: Inhibition of alpha-glucosidase (unknown origin) activity assessed as disruption of secondary structure by measuring beta-turn content at 40 uM by Circular dichroism spectra analysis (reference value: 15.8%); format: protein assay; parameters: scale not given: the % may be the effect or the level left
[20] = Cytotoxicity against human HEK293 cells assessed as cell survival at 250 uM incubated for 24 hrs by MTT assay; format: toxicity, cell-based; settings: read-out: Survival
[21] = molecular target: T1, Alpha glucosidase; experiment: Inhibition of alpha-glucosidase (unknown origin) activity assessed as disruption of secondary structure by measuring alpha-helix content at 10 uM by Circular dichroism spectra analysis (reference value: 40.0%); format: protein assay; parameters: scale not given: the % may be the effect or the level left
[22] = molecular target: T1, Alpha glucosidase; experiment: Binding affinity to alpha-glucosidase (unknown origin) assessed as quenching constant by fluorescence based analysis; format: protein assay
[23] = Inhibition of alpha-amylase (unknown origin); parameters: species or system Homo sapiens
[24] = molecular target: T1, Alpha glucosidase; experiment: Mixed inhibition of alpha-glucosidase (unknown origin) using p-NPG as substrate at 0 to 20 uM incubated for 15 mins by Lineweaver-Burk double reciprocal plot analysis; format: protein assay; settings: dose 0-20 µM
[25] = molecular target: T1, Alpha glucosidase; experiment: Inhibition of alpha-glucosidase (unknown origin) activity assessed as disruption of secondary structure by measuring beta-sheet content at 40 uM by Circular dichroism spectra analysis (reference value: 13.9%); format: protein assay; parameters: scale not given: the % may be the effect or the level left
[26] = molecular target: T1, Alpha glucosidase; experiment: Binding affinity to alpha-glucosidase (unknown origin) assessed as fluorescence intensity at 12.5 uM by fluorescence based analysis (reference value: 313.09); format: protein assay
[27] = molecular target: T1, Alpha glucosidase; experiment: Binding affinity to alpha-glucosidase (unknown origin) assessed as association constant by fluorescence based analysis; format: protein assay
[28] = molecular target: T1, Alpha glucosidase; experiment: Binding affinity to alpha-glucosidase (unknown origin) assessed as decreased fluorescence intensity by measuring peak 1 (lamda ex/lamda em: 315/375 nm) and peak 2 ((lamda ex/lamda em: 225/395 nm) by 3D fluorescence spectra analysis; format: protein assay
[29] = molecular target: T1, Alpha glucosidase; experiment: Binding affinity to alpha-glucosidase (unknown origin) using p-NPG as substrate assessed as enzyme-substrate complex inhibition constant at 0 to 20 uM incubated for 15 mins by Lineweaver-Burk double reciprocal plot analysis; format: protein assay; settings: dose 0-20 µM
[30] = molecular target: T1, Alpha glucosidase; experiment: Binding affinity to alpha-glucosidase (unknown origin) assessed as Stem-Volmer quenching constant by fluorescence based analysis; format: protein assay
[31] = molecular target: T1, Alpha glucosidase; experiment: Inhibition of alpha-glucosidase (unknown origin) activity assessed as disruption of secondary structure by measuring beta-turn content at 50 uM by Circular dichroism spectra analysis (reference value: 15.8%); format: protein assay; parameters: scale not given: the % may be the effect or the level left
[32] = molecular target: T1, Alpha glucosidase; experiment: Inhibition of alpha-glucosidase (unknown origin) activity assessed as disruption of secondary structure by measuring random coil content at 30 uM by Circular dichroism spectra analysis (reference value: 27.1%); format: protein assay; parameters: scale not given: the % may be the effect or the level left
[33] = molecular target: T1, Alpha glucosidase; experiment: Binding affinity to alpha-glucosidase (unknown origin) assessed as collision quenching by fluorescence based analysis; format: protein assay
[34] = molecular target: T1, Alpha glucosidase; experiment: Binding affinity to alpha-glucosidase (unknown origin) by fluorescence based analysis; format: protein assay
[35] = molecular target: T3, Tyrosine-protein phosphatase non-receptor type 1 (Homo sapiens) (UniProt P18031); experiment: Inhibition of PTP1B (unknown origin) in human HepG2 cells assessed as downregulation of PTP1B protein level at 50 uM at 40 to 60 degreeC incubated for 6 hrs by Western blot based Cellular thermal shift assay; format: cell-based
T3 sequence (whole entry): T2 sequence (P18031 whole entry)

[36] = system: Mus musculus; experiment: Reduction in blood glucose concentration in male Kunming mouse at 20 mg/kg preadministered for 40 mins and measured after 120 mins by sucrose loading test; format: functional, organism-based

With COc1ccc(/C=C/C(=O)OCCOc2ccc3ccc(=O)oc3c2)cc1OC the IC50 [1] was over 300 µM.
For O=C(/C=C/c1ccccc1[N+](=O)[O-])OCCOc1ccc2ccc(=O)oc2c1, the IC50 [1] was 299.7 µM.
With COc1ccc(/C=C/C(=O)OCCOc2ccc3ccc(=O)oc3c2)cc1Br the IC50 [1] was 286.2 µM.
O=C(OCCCOc1ccc2ccc(=O)oc2c1)c1ccc(Cl)cc1Cl showed an IC50 [1] of over 300 µM.
In the case of Cc1cc(=O)oc2c(C)c(OCCOC(=O)/C=C/c3ccc(Cl)cc3Cl)ccc12, the IC50 [1] is reported as over 300 µM.
For CC(C)=CC(=O)O[C@@H]1c2cc3ccc(=O)oc3cc2OC(C)(C)[C@H]1OC(=O)C=C(C)C, the IC50 [2] was 11.2 µM and the IC50 [3] was 79.1 µM.
Compound C/C=C\C(=O)O[C@H]1[C@H](O)c2cc3ccc(=O)oc3cc2OC1(C)C has an IC50 [2] of 5.4 µM and an IC50 [3] of 77.3 µM.
Work on O=C(/C=C/c1ccc(Cl)cc1Cl)OCCOc1ccc2ccc(=O)oc2c1 yielded an IC50 [1] of 116.5 µM.
O=C(OCCCCOc1ccc2ccc(=O)oc2c1)c1ccc(Cl)cc1Cl showed an IC50 [1] of over 300 µM.
O=C(/C=C/c1cccc(C(F)(F)F)c1)OCCOc1ccc2ccc(=O)oc2c1 gave an IC50 [1] of over 300 µM.
Compound O=C(/C=C/c1cccc(Br)c1)OCCOc1ccc2ccc(=O)oc2c1 has an IC50 [1] of 132.7 µM.
Compound O=C(/C=C/c1ccc(Cl)cc1Cl)OCCCOc1ccc2ccc(=O)oc2c1 has an IC50 [1] of over 300 µM.
O=C(/C=C/c1cccc(Cl)c1)OCCOc1ccc2ccc(=O)oc2c1 gave an IC50 [1] of over 300 µM.
With O=C(/C=C/c1cccc(F)c1)OCCOc1ccc2ccc(=O)oc2c1 the IC50 [1] was over 300 µM.
Work on Cc1c(C)c2c(C)cc(OCCOC(=O)/C=C/c3ccc(Cl)cc3Cl)cc2oc1=O yielded an Activity [4] of 28.3%, an Activity [5] of 32.2% and an Activity [6] of 15.3%. The Activity [7] was “Active”, the Ki [8] was 0.25 µM and the Activity [9] was 27.6%. The Activity [10] was 35.4%, the Activity [11] was 29.1% and the Activity [12] was 16.3%. For the same compound, the Activity [13] was 36.3%, the inhibition [14] was “Active” and the Activity [15] was 17.1%. For the same compound, the IC50 [16] was 47 µM, the Activity [17] was 17.9% and the Activity [18] was 20.9%. The Activity [19] was 17.8%, the viability at 24 h, 250 µM [20] was 81.8% and the Activity [21] was 37.1%. The Kq [22] was 9.7 10^12L/mol/s, the IC50 [23] was 30.6 µM and the inhibition [24] was “Active; Intersection In Second Quadrant Of Double Reciprocal Graph Observed; Compound Binds To Free Enzyme And Enzyme-Substrate Complex”. It also gave an Activity [25] of 20.2%, an IC50 [1] of 66.3 µM and a Flu intensity [26] of 144. The ka [27] was 2.09 10^3L/mol, the inhibition [28] was “Active; Peak 1 Reflected The Absorption Peak Of Tyrosine Residues And Tryptophan Residues And Peak 2 Was Fluorescence Feature Of Polypeptide Backbone Structure” and the Kis [29] was 0.17 µM. For the same compound, the KSV [30] was 9.7 10^4L/mol, the Activity [31] was 18% and the Activity [32] was 32.7%. For the same compound, the K [33] was 2 10^10L/mol/s, the Activity [34] was “Active; Wavelength Of Maximum Emission Peak Red Shifted From 335 Nm To 340 Nm” and the inhibition [35] was “Active”. The Activity [36] was “Active”.
For CC(C)c1cc2cc3ccc(=O)oc3cc2o1, the IC50 [2] was 10.8 µM and the IC50 [3] was 85.8 µM.
